Experimental data as given in patent US20130059314A1, “FRET-BASED METHOD FOR THE DETERMINATION OF PROTEIN PHOSPHATASE AND KINASE ACTIVITY” (priority 2010, published 2013).

Assays:
[1] = test system: PP1/2A; experiment: FRET-based phosphatase activity assay in PP1/2A buffer; assay type: biochemical; details: FIG. 9
Excerpt: FIG. 8 is a graph showing that in the PP1A/2A buffer, a linear range of phosphatase activity not attributable to calcineurin activity was detected.
(§1) Okadaic acid is a known inhibitor if PP1/2A.

[2] = test system: Calcineurin; experiment: FRET-based calcineurin activity assay with okadaic acid; assay type: biochemical; details: similar range of okadaic acid; FIG. 9
Description: as §1
2. Calcineurin activity was assessed by mixing equal parts lysate, RII or other peptide sample), and reacted for 5-10 mins at 30° C. Control reactions were included that contained known varying amounts of purified calcineurin to calculate a standard curve for each plate.
3. To stop the reaction, a solution of 10% acetyl nitrile and 0.01% acetic acid solution was added. This step was essential to reduce the pH of the reaction to below 3.5 and enable the binding of the titanium oxide beads to the target peptide.
4. FLUOR-titanium oxide beads were added with gentle shaking for 5 mins. Phosphorylated-peptides were retained on the beads producing a “shifted” TAMRA signal while non-phosphorylated peptides were unbound.
5. Reactions were neutralized with 0.35% ammonium hydroxide to return the pH to greater than 7 and the fluorescence of each sample will be read at 450 nm excitation/580 nm emission.
6. Calcineurin activity was then determined by calculating the slope and y-intercept of the standard curve and then extrapolating calcineurin activity from the fluorescence intensity.

C=C1[C@@H](O)[C@@H]2O[C@]3(CC[C@H](/C=C/[C@@H](C)[C@@H]4CC(C)=C[C@@]5(O[C@H](C[C@@](C)(O)C(=O)O)CC[C@H]5O)O4)O3)CC[C@H]2O[C@@H]1[C@@H](O)C[C@H](C)[C@H]1O[C@@]2(CCCCO2)CC[C@H]1C [okadaic acid]
phosphatase activity detected in the PP1/2A buffer, inhibition [1]: sensitive to inhibition with okadaic acid, in a dose-dependent fashion | calcineurin activity, sensitivity to okadaic acid [2]: not sensitive to further reduction
